# Biological target: T1, MALT1 (Homo sapiens, UniProt Q9UDY8)
# T1 sequence (Q9UDY8 1-824): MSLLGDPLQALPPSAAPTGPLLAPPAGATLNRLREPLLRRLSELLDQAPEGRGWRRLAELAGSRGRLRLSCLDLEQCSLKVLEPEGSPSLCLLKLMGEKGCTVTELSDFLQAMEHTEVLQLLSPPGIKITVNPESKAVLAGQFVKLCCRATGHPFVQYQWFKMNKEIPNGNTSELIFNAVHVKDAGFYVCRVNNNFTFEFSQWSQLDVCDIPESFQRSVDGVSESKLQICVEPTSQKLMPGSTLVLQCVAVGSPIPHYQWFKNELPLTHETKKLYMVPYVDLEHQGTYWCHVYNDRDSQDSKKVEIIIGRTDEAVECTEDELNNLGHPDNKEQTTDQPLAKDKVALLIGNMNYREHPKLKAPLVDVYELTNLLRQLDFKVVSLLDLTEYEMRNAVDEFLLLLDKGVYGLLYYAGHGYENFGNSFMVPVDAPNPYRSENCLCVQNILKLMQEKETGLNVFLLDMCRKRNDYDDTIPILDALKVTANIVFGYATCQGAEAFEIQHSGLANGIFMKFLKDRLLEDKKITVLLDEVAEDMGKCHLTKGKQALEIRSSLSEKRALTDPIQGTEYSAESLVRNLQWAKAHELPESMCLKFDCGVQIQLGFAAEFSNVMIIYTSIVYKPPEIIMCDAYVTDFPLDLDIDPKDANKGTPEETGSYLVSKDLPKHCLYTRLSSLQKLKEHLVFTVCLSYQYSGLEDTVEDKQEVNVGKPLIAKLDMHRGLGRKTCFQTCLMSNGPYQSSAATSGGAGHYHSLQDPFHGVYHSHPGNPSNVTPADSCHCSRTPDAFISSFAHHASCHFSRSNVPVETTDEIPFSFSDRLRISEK
# Experiment: MALT1 protease inhibition assay (AMC-labeled peptide, fluorescence 360/460)
# Format: biochemical
# Conditions: substrate Ac-LRSR-AMC, 15 min preincubation, 90 min at 25° C.
# Procedure: Test compounds of the present invention (in 100% DMSO) were spotted into a 384-well dilution plate and serially diluted to the required concentrations with DMSO. Then, 0.2 μL of the test compounds were transferred into a new 384-well reaction plate by Echo following centrifugation. The MALT enzyme and its substrate, AMC-labeled peptide, were prepared in 1× protease buffer to yield 2× enzyme solution and 2× peptide solution. Subsequently, 10 μL of 2× enzyme solution was added into the 384-well reaction plate, incubating with the test compounds for 15 minutes at 25° C. After that, 10 μL of 2× peptide solution was added into the plate, continuing to incubate for 90 minutes at 25° C. The plate was then placed on an Envision multifunctional microplate reader to collect raw data, which would be converted into inhibition rate:
# Inhibition rate %=(max−sample)/(max−min)*100%. • “max” values were measured using the reaction with enzyme but no compound treated, while “min” values were generated from control wells containing assay buffer without enzyme.
# Curve fitting was done with Graphpad Prism software to determine the IC50 values. The specific experimental operations are as follows:
# 58.82 g Na Citrate·2H2O powder was added into 140 mL ddH2O and mixed in a 37° C. water bath. Once there were no visible particles, the remaining solutions were added successively with continuous stirring for 10 minutes. The final volume was adjusted to 200 mL. The buffer was stored at room temperature. DTT was added before use.
# • 1) All test compounds were diluted from 10 mM stock solution into 1 mM in a 384 well dilution plate (labcyte, PP-0200); • 2) Ten various concentrations of the diluted compound solution above were obtained by serial dilution at an equal ratio of 1:3; • 3) 0.2 μL DMSO was transferred to two empty wells of the 384 reaction plate as blank controls without compound and enzyme respectively; • 4) 0.2 μL of the test compound at different concentrations was also transferred into the 384 reaction plate by Echo, with two duplicate wells for each concentration, then the plate was centrifuged at 1000 rpm for 1 min.
# • 1) The MALT1 protease and AMC-labeled peptide was prepared in 1× protease buffer to obtain 2× enzyme solution and 2× peptide solution. 10 μL of 2× enzyme solution was added into the 384-well reaction plate. The plate was centrifuged at 1000 rpm for 1 min and incubated for 15 min at 25° C. • 2) 10 μL of 2× peptide solution was then transferred to the 384 reaction plate, and the plate was centrifuged at 1000 rpm for 1 min and incubate for 90 min at 25° C.
row,Molecule,IC50
1,"C#Cc1c(F)nc(C)c(N)c1-c1cc(Cl)c(C(=O)Nc2cnc(-n3nccn3)c(C(F)(F)F)c2)cc1F [Example A556, N-(6-(2H-1,2,3-triazol-2-yl)-5-(trifluoromethyl)pyridin-3-yl)-4-(3-amino-5-ethynyl-6-fluoro-2-methylpyridin-4-yl)-2-chloro-5-fluorobenzamide]",≤ 10 nM
2,C#Cc1cc(F)ccc1-c1cc(C)c(C(=O)Nc2cnc(-n3nccn3)c(Cl)c2)cc1C#C [Example A415],10 to 100 nM
3,"C#Cc1cc(C(=O)Nc2cnc(-n3nccn3)c(Cl)c2)c(C)cc1-c1ccc(F)cc1Cl [Example A414, 2′-chloro-N-(5-chloro-6-(2H-1,2,3-triazol-2-yl)pyridin-3-yl)-2-ethynyl-4′-fluoro-5-methyl-[1,1′-biphenyl]-4-carboxamide]",10 to 100 nM
4,"Cc1cc(-c2ccc(F)cc2N)c(C2=CCCC2)cc1C(=O)Nc1cnc(-n2nccn2)c(Cl)c1 [Example A420, 2′-amino-N-(5-chloro-6-(2H-1,2,3-triazol-2-yl)pyridin-3-yl)-2-(cyclopent-1-en-1-yl)-4′-fluoro-5-methyl-[1,1′-biphenyl]-4-carboxamide]",> 500 nM
5,"Cc1cc(-c2ccc(F)cc2N)c(-c2ccccc2)cc1C(=O)Nc1cnc(-n2nccn2)c(Cl)c1 [Example A421, 2-amino-N-(5-chloro-6-(2H-1,2,3-triazol-2-yl)pyridin-3-yl)-4-fluoro-5′-methyl-[1,1′:2′,1″-terphenyl]-4′-carboxamide]",> 500 nM
6,"Nc1cncc(C2CC2)c1-c1cc(Cl)c(C(=O)Nc2cnc(-n3nccn3)c(C(F)(F)F)c2)cc1F [Example A475, N-(6-(2H-1,2,3-triazol-2-yl)-5-(trifluoromethyl)pyridin-3-yl)-4-(3-amino-5-cyclopropylpyridin-4-yl)-2-chloro-5-fluorobenzamide]",≤ 10 nM
7,"C#Cc1cc(C(=O)Nc2cnc(-n3nccn3)c(Cl)c2)c(C)cc1-c1ccncc1OC [Example A417, N-(5-chloro-6-(2H-1,2,3-triazol-2-yl)pyridin-3-yl)-5-ethynyl-4-(3-methoxypyridin-4-yl)-2-methylbenzamide]",10 to 100 nM
8,"Nc1cc(F)ccc1-c1cc(Cl)c(C(=O)Nc2cnc(-n3nccn3)c(Cl)c2)cc1C1=CCCCC1 [Example A418, 2-amino-5′-chloro-N-(5-chloro-6-(2H-1,2,3-triazol-2-yl)pyridin-3-yl)-4-fluoro-2″,3″,4″,5″-tetrahydro-[1,1′:2′,1″-terphenyl]-4′-carboxamide]",> 500 nM
9,"C=Cc1cc(C(=O)Nc2cnc(-n3nccn3)c(Cl)c2)c(Cl)cc1-c1ccc(F)cc1N [Example A424, 2′-amino-5-chloro-N-(5-chloro-6-(2H-1,2,3-triazol-2-yl)pyridin-3-yl)-4′-fluoro-2-vinyl-[1,1′-biphenyl]-4-carboxamide]",10 to 100 nM
10,"5-(2′-amino-5-chloro-2,4′- difluoro-[1,1′-biphenyl]-4- carboxamido)-3-chloro-N- (2,2-difluoro-2λ3- ethyl)picolinamide [Example A457]",10 to 100 nM
11,CC#Cc1cc(C(=O)Nc2cnc(-n3nccn3)c(Cl)c2)c(C)cc1-c1ccc(F)cc1N [Example A423],10 to 100 nM
12,"O=C(Nc1cnc(-n2nccn2)c(C(F)(F)F)c1)c1cc(F)c(-c2c(Br)cncc2[N+](=O)[O-])cc1Cl [Example A440, N-(6-(2H-1,2,3-triazol-2-yl)-5-(trifluoromethyl)pyridin-3-yl)-4-(3-bromo-5-nitropyridin-4-yl)-2-chloro-5-fluorobenzamide]",10 to 100 nM

# Now from value to molecule:
row,IC50,Molecule
1,10 to 100 nM,"N#CC1(CNC(=O)c2ncc(NC(=O)c3cc(F)c(-c4ccc(F)cc4N)cc3Cl)cc2Cl)CC1 [Example A466, 5-(2′-amino-5-chloro-2,4′-difluoro-[1,1′-biphenyl]-4-carboxamido)-3-chloro-N-((1-cyanocyclopropyl)methyl)picolinamide]"
2,100 to 500 nM,"Nc1cc(F)ccc1-c1cc(Cl)c(C(=O)Nc2cnc(C(=O)NCC(F)(F)C(F)(F)F)c(Cl)c2)cc1F [Example A467, 5-(2′-amino-5-chloro-2,4′-difluoro-[1,1′-biphenyl]-4-carboxamido)-3-chloro-N-(2,2,3,3,3-pentafluoropropyl) picolinamide]"
3,≤ 10 nM,"Nc1cc(F)ccc1-c1cc(Cl)c(C(=O)Nc2cnc(C(=O)NCC(F)(F)F)c(Cl)c2)cc1F [Example A443, 5-(2′-amino-5-chloro-2,4′-difluoro-[1,1′-biphenyl]-4-carboxamido)-3-chloro-N-(2,2,2-trifluoroethyl)picolinamide]"
4,100 to 500 nM,"Nc1cc(F)ccc1-c1cc(Cl)c(C(=O)Nc2cnc(C(=O)NCCOC(F)(F)F)c(Cl)c2)cc1F [Example A459, 5-(2′-amino-5-chloro-2,4′-difluoro-[1,1′-biphenyl]-4-carboxamido)-3-chloro-N-(2-(trifluoromethoxy)ethyl)picolinamide]"
5,≤ 10 nM,"C=Cc1cncc(N)c1-c1cc(Cl)c(C(=O)Nc2cnc(-n3nccn3)c(Cl)c2)cc1F [Example A507, 4-(3-amino-5-vinylpyridin-4-yl)-2-chloro-N-(5-chloro-6-(2H-1,2,3-triazol-2-yl)pyridin-3-yl)-5-fluorobenzamide]"
6,≤ 10 nM,C#Cc1cnc(Cl)c(N)c1-c1cc(Cl)c(C(=O)Nc2cnc(-n3nccn3)c(C(F)(F)F)c2)cc1F [Example A553]
7,≤ 10 nM,"C#Cc1cncc(N)c1-c1cc(Cl)c(C(=O)Nc2cnc(C(=O)NCC(F)F)c(Cl)c2)cc1F [Example A471, 5-(4-(3-amino-5-ethynylpyridin-4-yl)-2-chloro-5-fluorobenzamido)-3-chloro-N-(2,2-difluoroethyl)picolinamide]"
8,10 to 100 nM,"CC(C#N)NC(=O)c1ncc(NC(=O)c2cc(F)c(-c3ccc(F)cc3N)cc2Cl)cc1Cl (stereo not drawn) [Example A450, 5-(2′-amino-5-chloro-2,4′-difluoro-[1,1′-biphenyl]-4-carboxamido)-3-chloro-N-(1-cyanoethyl)picolinamide]"
9,≤ 10 nM,"C=C(C)c1cncc(N)c1-c1cc(Cl)c(C(=O)Nc2cnc(-n3nccn3)c(Cl)c2)cc1F [Example A504, 4-(3-amino-5-(prop-1-en-2-yl)pyridin-4-yl)-2-chloro-N-(5-chloro-6-(2H-1,2,3-triazol-2-yl)pyridin-3-yl)-5-fluorobenzamide]"
10,≤ 10 nM,"C#Cc1cnc(F)c(N)c1-c1cc(Cl)c(C(=O)Nc2cnc(-n3nccn3)c(Cl)c2)cc1F [Example A485, 4-(3-amino-5-ethynyl-2-fluoropyridin-4-yl)-2-chloro-N-(5-chloro-6-(2H-1,2,3-triazol-2-yl)pyridin-3-yl)-5-fluorobenzamide]"
11,> 500 nM,"C#CCNC(=O)c1ncc(NC(=O)c2cc(F)c(-c3ccc(F)cc3N)cc2Cl)cc1Cl [Example A439, 5-(2′-amino-5-chloro-2,4′-difluoro-[1,1′-biphenyl]-4-carboxamido)-3-chloro-N-(prop-2-yn-1-yl) picolinamide]"
12,10 to 100 nM,"Nc1cc(F)ccc1-c1cc(Cl)c(C(=O)Nc2cnc(C(=O)NCC3CCS(=O)(=O)CC3)c(Cl)c2)cc1F [Example A437, 5-(2′-amino-5-chloro-2,4′-difluoro-[1,1′-biphenyl]-4-carboxamido)-3-chloro-N-((1,1-dioxidotetrahydro-2H-thiopyran-4-yl)methyl)picolinamide]"

# Source: patent US20240336594A1, “SIX-MEMBERED ARYL OR HETEROARYL AMIDES, AND COMPOSITION AND USE THEREOF” (BETTA PHARMACEUTICALS CO., LTD, priority 2021, published 2024)
